Laboratory results: patent publication US8828416B2 (Cordis Corporation, priority 2004, dated 2014)
Entries after “also recorded” stand apart in the source; their conditions may differ. Where two headings read alike, the source gives them in different places.

Columns and labels:
[1] = cited from earlier work
[2] = In vitro release kinetics of cladribine from PVDF/HFP coatings in twenty-five percent ethanol/water; assay type: in vitro ADME; details: room temperature
Description: FIG. […] The basecoat comprises a ratio of PVDF/ HFP (85/15) and cladribine. Cladribine comprises thirty percent of the basecoat. The topcoat also comprises an 85/15 ratio of PVDF and HFP, but no cladribine. Curve 5902 represents the release kinetics of cladribine wherein the basecoat weight is six hundred micrograms (one hundred eighty micrograms cladribine). Curve 5904 represents the release kinetics of cladribine wherein the basecoat weight is one thousand eight hundred micrograms (five hundred forty micrograms cladribine). Curve 5906 represents the release kinetics of cladribine wherein the basecoat weight is six hundred micrograms (one hunded eighty micrograms cladribine) and the topcoat weight is one hundred micrograms. Curve 5908 represents the release kinetics of cladribine wherein the basecoat weight is one thousand eight hundred micrograms (five hundred forty micrograms cladribine) and the topcoat is three hundred micrograms. Curve 5910 represents the release kinetic of cladribine wherein the basecoat weight is six hundred micrograms (one hundred eighty micrograms cladribine) and the topcoat is three hundred micrograms.
FIG. 60 is a graphical representation of the in vitro release kinetics of cladribine from a sterile PVDF/HFP coating incorporated in a twenty-five percent ethanol/water release medium at room temperature. […]

[3] = test system: human smooth muscle cells; assay: Inhibition of human vascular cell proliferation with cladribine, smooth muscle cells, PDGF-stimulated cell count; assay type: cell-based; details: from IC50 values 23 and 40 nanomolar
Method: After twenty-four hours, the growth medium was changed and fresh medium containing 10 ng/ml platelet-derived growth factor AB (PDGF AB; LIFE Technologies), as well as various concentrations of cladribine (0.001-10,000 nM) were added with triplicate wells. Medium was replaced with fresh cladribine-containing medium after three days. On day six, cells were detached by trypsinization to yield a cell suspension, lightly centrifuged to pellet and then counted manually using a Neubauer hemocytometer system. Cell viability was assessed by trypan blue exclusion.

[4] = test system: non-synchronized cultured human coronary artery smooth muscle cells; assay: Anti-proliferative activity in non-synchronized cultured human coronary artery smooth muscle cells stimulated with two percent fetal bovine serum; assay type: cell-based
Description: The multiple curves represent various concentrations of mycophenolic acid ranging from zero to one thousand nanomolar concentrations.
FIG. 58 illustrates, in graphical format, the anti-proliferative activity of cladribine in non-synchronized cultured human coronary artery smooth muscle cells stimulated with two percent fetal bovine serum.
The multiple curves represent various concentrations of cladribine ranging from zero to nine hundred nanomolar concentrations.

[5] = In vivo release kinetics of cladribine and rapamycin from coated Bx Velocity stents in Yorkshire pigs; set-up: species or system Yorkshire pig
Description: FIG. 61 is a graphical representation of the in vivo release kinetics of cladribine from a polymeric coating on Bx Velocity® stents, available from Cordis Corporation, implanted in a Yorkshire pig. The basecoat comprises an 85/15 ratio of PVDF and HFP and cladribine for a total combined weight of one thousand eight hundred micrograms (cladribine comprising thirty percent of the total weight). […]
(§1) The basecoat is applied to Bx Velocity® stents and implanted into Yorkshire pigs.
as §1

[6] = In vitro release kinetics of rapamycin from a combination of rapamycin and mycophenolic acid; assay type: in vitro ADME; details: FIG. 55
Description: The in vitro tests were run twice for each coating scenario.

[7] = In vivo release kinetics of rapamycin and mycophenolic acid from polymer coatings, porcine pharmacokinetics studies
Description: The topcoat is two hundred micro grams.

cell viability = assay: Separate cell viability assay of topotecan; assay type: cell-based; details: concentrations up to one micromolar
Description: (§2) The multiple curves represent various concentrations of topotecan ranging from zero to three hundred nanomolar concentrations.

[8] = test system: synchronized cultured human coronary artery smooth muscle cells; assay: Anti-proliferative activity in synchronized cultured human coronary artery smooth muscle cells stimulated with two percent fetal bovine serum; assay type: cell-based; details: topotecan zero to three hundred nanomolar, FIG. 64
Description: as §2

[9] = test system: human coronary artery smooth muscle cell; details: Brehm et al., 2000; cited from earlier work
[10] = test system: human coronary artery smooth muscle cell; assay: Inhibition of coronary artery smooth muscle cell proliferation by trichostatin A, in vitro cell culture; assay type: cell-based
Description: FIG. 51 is a graph of the inhibition of coronary artery smooth muscle cells by trichostatin A in a cell culture study.

tumor cell lines = tumor cell lines (Woo et al., 2002); cited from earlier work

For CC[C@@]1(O)C(=O)OCc2c1cc1n(c2=O)Cc2cc3ccccc3nc2-1 [Camptothecin, camptothecin], the lipid solubility [1] is given as “high lipid solubility” and the water solubility [1] is given as “poor water solubility”.
With Nc1nc(Cl)nc2c1ncn2[C@H]1C[C@H](O)[C@@H](CO)O1 [Cladribine, 2-chlorodeoxyadenosine] the “in vitro release rate of cladribine, effect of topcoat weight” value ([2]; non-sterile PVDF/HFP (85/15) coatings, FIG. 59) was “an increase in topcoat weight or thickness led to a decrease in the release rate of cladribine”, the “in vitro release rate of cladribine, effect of topcoat” value ([2]; sterile PVDF/HFP coating, FIG. 60) was “a three-times topcoat led to a drastic decrease of release rate” and the “potency as inhibitor of smooth muscle cells relative to endothelial cells” value [3] was “approximately twice as potent”. For the same compound, the “inhibition of human coronary artery smooth muscle cell proliferation” value (shortened to “inhibition”) ([4]; cladribine alone, FIG. 58) was “completely inhibits”, the “effect of added cladribine on the anti-proliferative rapamycin dose response curve” value ([4]; cladribine zero to nine hundred nanomolar, FIG. 57) was “potentiate the anti-proliferative activity of rapamycin; also recorded: increases the percent inhibition of rapamycin alone” and the “in vivo elution of cladribine compared with rapamycin” value ([5]; EVA/BMA basecoat, 200 μg BMA topcoat, Yorkshire pigs, FIG. 63) was “elutes more rapidly than rapamycin”. The “in vivo elution of cladribine over time” value ([5]; PVDF/HFP 85/15 basecoat 1800 μg (thirty percent cladribine), 300 μg topcoat, Yorkshire pig, FIG. 61) was “after the first day, the elution of cladribine levels off significantly”.
With CO[C@H]1C[C@@H]2CC[C@@H](C)[C@@](O)(O2)C(=O)C(=O)N2CCCC[C@H]2C(=O)O[C@H]([C@H](C)C[C@@H]2CC[C@@H](O)[C@H](OC)C2)CC(=O)[C@H](C)/C=C(\C)[C@@H](O)[C@@H](OC)C(=O)[C@H](C)C[C@H](C)/C=C/C=C/C=C/1C [Rapamycin, rapamycin] the “in vitro release of rapamycin from EVA/BMA basecoat, effect of BMA topcoat” value ([6]; 600 μg basecoat with 180 μg rapamycin and 180 μg mycophenolic acid) was “BMA topcoat does slow the release of rapamycin from the basecoat in in vitro testing”, the “in vitro release rates of rapamycin compared with in vivo” value ([6]; EVA/BMA basecoat) was “release rates are faster than in the in vivo testing” and the “in vivo release rates of rapamycin from rapamycin/cladribine EVA/BMA basecoats” value ([5]; three rapamycin/cladribine loadings, 200 μg BMA topcoat, Yorkshire pigs, FIG. 62) was “substantially similar to one another”. The “in vivo release of rapamycin from EVA/BMA basecoat, effect of BMA topcoat” value ([7]; 600 μg basecoat with 180 μg rapamycin and 180 μg mycophenolic acid, no, 100 or 200 μg BMA topcoat, FIG. 53) was “BMA topcoat does slow the release of rapamycin from the basecoat” and the “in vivo release rate of rapamycin compared with mycophenolic acid” value ([7]; PVDF basecoat 600 μg with PVDF topcoat 200 μg, FIG. 56) was “slower release rate than that of mycophenolic acid”.
In the case of CC[C@@]1(O)C(=O)OCc2c1cc1n(c2=O)Cc2cc3c(CN(C)C)c(O)ccc3nc2-1 [Topotecan, topotecan], the “cytotoxicity in cell viability assay” value (cell viability) is listed as “non-cytotoxic”, the “effect of added topotecan on the anti-proliferative rapamycin dose response curve” value [8] is listed as “potentiate the anti-proliferative activity of rapamycin; also recorded: increases the percent inhibition of rapamycin alone” and the “inhibition” value [9] is listed as “inhibit human coronary artery smooth muscle cell proliferation”.
With COc1c(C)c2c(c(O)c1C/C=C(\C)CCC(=O)O)C(=O)OC2 [mycophenolic acid] the “effect of added mycophenolic acid on the anti-proliferative rapamycin dose response curve” value ([4]; mycophenolic acid zero to one thousand nanomolar, FIG. 52) was “potentiates the anti-proliferative activity of rapamycin”, the “in vivo release of mycophenolic acid from EVA/BMA basecoat, effect of BMA topcoat” value ([7]; 600 μg basecoat with 180 μg rapamycin and 180 μg mycophenolic acid, no, 100 or 200 μg BMA topcoat, FIG. 54) was “BMA topcoat does slow the release of mycophenolic acid from the basecoat” and the “in vivo elution of mycophenolic acid compared with rapamycin” value ([7]; EVA/BMA basecoat, FIG. 53 and 54) was “elutes more completely over a shorter duration than the rapamycin”.
For CC(/C=C/C(=O)NO)=C\[C@@H](C)C(=O)c1ccc(N(C)C)cc1 [trichostatin A], the “inhibition” value ([10]; FIG. 51) is listed as “completely inhibit”, the IC50 ([10]; read-out: anti-proliferative IC50) is listed as ~6 nM and the “anti-proliferative IC50” value (tumor cell lines) is listed as “low nM range”.
